The test system of experiment [1] is Human osteosarcoma SJSA-1 cells. Briefly: In vitro cell proliferation suppressive activity (MTT method). It counts as cell-based. The note with it: 3 days culture; for IC50: Homo sapiens, 72 h, read-out: IC50 (concentration at which 50% of the cell proliferation was suppressed), SJSA-1 cells. The method, then: (§1) Proliferation suppressive activities of ellagitannin against various kinds of cancer cell lines were measured in the following manner.
(§2) Each of the following cancer cell lines was placed in a 96-well plate at 5×10^3 cell/100 μL per well using a DMEM medium (product of NISSUI PHARMACEUTICAL CO., LTD.) containing FBS (product of Sigma-Aldrich Co.) in an amount of 10 liquid amount %, and was cultured for 24 hours at 37° C. in an atmosphere of 5% CO2, whereby the cells were allowed to adhere to the plate completely.
(§3) Each of the following ellagitannins was added thereto so as to have final concentrations of 100 μg/mL, 50 μg/mL, 25 μg/mL, 12.5 μg/mL, 6.25 μg/mL, 3.13 μg/mL, 1.56 μg/mL, and 0.78 μg/mL, followed by culturing for 3 days at 37° C. in an atomosphere of 5% CO2.
(§4) In addition, as comparative controls, the 96-well plates to which the cancer cells had been allowed to adhere were cultured for 3 days at 37° C. in an atomosphere of 5% CO2 without addition of ellagitannin.
(§5) After the culturing for 3 days, cell proliferation was measured using the MTT method. The MTT method was performed as follows. Specifically, 10 μL of an MTT solution (a PBS solution containing MTT (3-(4,5-dimethylthiazol-2-yl)-2,5-diphenyltetrazolium bromide) at a concentration of 5 mg/mL) was added to each well and cultured for 4 hours. The formed formazan products were dissolved by adding 100 μL of a 20% SDS solution to each well, and measured for absorbance at 570 nm using LABSYSTEMS MULTISCAN MS (product of DS Pharma Biomedical Co., Ltd.).
(§6) The absorbance of the system involving the addition of the ellagitannin was indicated as “A” and the absorbance of the system of the comparative controls was indicated as “B”, and cell proliferation inhibitory rate (%) was calculated from the following formula (1).
(§7) Cell proliferation inhibitory rate(%)={(B−A)/B}×100 Formula (1)
(§8) Next, the cell proliferation inhibitory rate was used to determine a concentration at which 50% of the cell proliferation was suppressed (IC50 value).
A general note: Tetrazolium dyes change colour on reduction, which living cells bring about.

Experiment [2] has as its system Human lung cancer NCI-H460 cells. The description is as above. It counts as cell-based. To be noted: 3 days culture; for IC50: Homo sapiens, 72 h, read-out: IC50 (concentration at which 50% of the cell proliferation was suppressed), NCI-H460 cells. The protocol:
as §1, §2, §3, §4, §5, §6, §7, §8

The test system of experiment [3] is human osteosarcoma SJSA-1 cells. Briefly: Antitumor activity-2 in cancer cell-transplanted mice (Test Example 2-2). It is filed as in vivo, mouse. The note with it: nude mice transplanted with SJSA-1 cells; 12.5, 6.25 or 3.13 mg/kg, tail vein, twice a week; FIG. 3. From the text: Eugeniin (product of […] Science Co., Ltd.) was used as the ellagitannin and was studied for antitumor activity in the following manner.

For experiment [4] the test system is unchanged. Briefly: Antitumor activity-1 in cancer cell-transplanted mice (Test Example 2-1). It counts as in vivo, mouse. To be noted: nude mice transplanted with SJSA-1 cells; 12.5 mg/kg, tail vein, twice a week from one week after transplantation; FIG. 1. The method, then: (§9) The antitumor effect of the geraniin was evaluated by observing the proliferation state of the tumor after the transplantation of the cells. Specifically, a longer diameter and a shorter diameter of each tumor were meatured with a caliper, and a tumor volume was measured from the following formula (2). Its average and standard deviation were obtained to determine the effect in the geraniin-administration groups in comparison to the comparative control groups.
(§10) Tumore volume=longer diameter×(shorter diameter)^2÷2 Formula (2)

Experiment [5] deals with human lung cancer NCI-H460 cells. Described as above. It is filed as in vivo, mouse. The note with it: nude mice transplanted with NCI-H460 cells; 12.5 mg/kg, tail vein, twice a week from one week after transplantation; FIG. 2. The protocol: as §9, §10

The values that follow come from patent US20150283159A1, “ANTICANCER AGENT, AND COMBINATION USE ANTICANCER AGENT” (Microbial Chemistry Research Foundation, priority 2012, published 2015).

≈ marks a conversion by molar mass, not a printed value. Where only a bound is given, the exact number is not on record here.

In the case of `O=C(OC1OC2COC(=O)c3cc(O)c(O)c(O)c3-c3c(cc(O)c(O)c3O)C(=O)OC2C(OC(=O)c2cc(O)c(O)c(O)c2)C1O)c1cc(O)c(O)c(O)c1` (stereo not drawn) [1,3-di-O-galloyl-4,6-O-hexahydroxydiphenoyl glucose], the values for the IC50 in experiment [1] and in experiment [2] were 41 µg/mL (≈ 52.1 µM) and 11 µg/mL (≈ 14 µM), respectively.

On to `O=C(O[C@@H]1O[C@@H]2COC(=O)c3cc(O)c(O)c(O)c3-c3c(cc(O)c(O)c3O)C(=O)O[C@H]2[C@H](OC(=O)c2cc(O)c(O)c(O)c2)[C@H]1OC(=O)c1cc(O)c(O)c(O)c1)c1cc(O)c(O)c(O)c1` [Eugeniin, eugeniin], for which the IC50 stood at 18 µg/mL (≈ 19.2 µM) in experiment [1] and 5.6 µg/mL (≈ 5.97 µM) in experiment [2]. Besides, the “tumor volume compared with the comparative control group (Saline)” value in experiment [3] is reported as “significantly smaller”.

As for `O=C1O[C@H]2[C@@H]3OC(=O)c4cc(O)c(O)c(O)c4-c4c(cc(O)c(O)c4O)C(=O)OC[C@H]2O[C@@H](OC(=O)c2cc(O)c(O)c(O)c2)[C@@H]3OC(=O)c2cc(O)c(O)c3c2[C@@H]2C1=CC(=O)[C@](O)(O3)C2(O)O` [Geraniin, geraniin], the “tumor volume compared with the comparative control group (Saline)” value in experiment [4] and in experiment [5] was “significantly smaller” throughout. Moreover, the IC50 in experiment [1] was determined as 100 µg/mL (≈ 105 µM); in experiment [2] it was 40 µg/mL (≈ 42 µM).

`O=C(OC1OC2COC(=O)c3cc(O)c(O)c(O)c3-c3c(cc(O)c(O)c3O)C(=O)OC2C(O)C1O)c1cc(O)c(O)c(O)c1` (stereo not drawn) [Strictinin, strictinin]: the IC50 is no less than 110 µg/mL in experiment [1] and 33 µg/mL (≈ 52 µM) in experiment [2].

`O=C(OC1C(O)OC2COC(=O)c3cc(O)c(O)c(O)c3-c3c(cc(O)c(O)c3O)C(=O)OC2C1OC(=O)c1cc(O)c(O)c(O)c1)c1cc(O)c(O)c(O)c1` (stereo not drawn) [Tellimagrandin I, tellimagrandin I]: the values for the IC50 in experiment [1] and in experiment [2] were 46 µg/mL (≈ 58.5 µM) and 32 µg/mL (≈ 40.7 µM), respectively.

Consider casuarictin, for which, in experiment [1], the “IC50 (concentration at which 50% of the cell proliferation was suppressed), SJSA-1 cells” value stood at 61 µg/mL. For the same compound, the “IC50 (concentration at which 50% of the cell proliferation was suppressed), NCI-H460 cells” value in experiment [2] is 35 µg/mL.
